Legend:
C. glabrata = test: Inhibition of growth of C. glabrata, Example 2 antifungal assay; assay type: cell-based; conditions: ½ strength PDB, 30° C., A595
Method: (§1) The inhibitory effects of the plant defensins on the growth of Candida albicans, Aspergillus fumigatus (obtained from the National Mycology Reference Centre, South Australia Pathology at the Women's and Children's Hospital, Adelaide, Australia), C. glabrata, C. tropicalis, A. flavus, A. niger, A. fumigants, Cryptococcus neoformans and C. gattii (obtained from Dee Carter, University of Sydney, New South Wales, Australia) are measured essentially as described by Broekaert et al. (1990) FEMS Microbiol Lett 69:55-59.
(§2) Spores of A. flavus. A. niger and A. fumigatus are isolated from sporulating fungus growing on ½ strength Sabouraud dextrose agar. Spores were removed from the plates by the addition of ½ strength potato dextrose broth (PDB). C. albicans, C. glabrata, C. tropicalis, C. neoformans and C. gattii cells are grown in Yeast Peptone Broth (YPD) for 16 h. Spore and cell concentrations are measured using a hemocytometer.
(§3) Antifungal assays are conducted in 96 well microtitre plates essentially as herein described. Wells are loaded with 20 μL of filter sterilized (0.22 μm syringe filter, Millipore) defensin (10× stock for each final concentration) or water and 80 μL of 5×10^4 spores/mL (A. flavus, A. niger, A. fumigatus), 5,000 cells/mL (C. albicans, C. glabrata, C. tropicalis) or 1×10^6 cells/mL (C. neoformans, C. gattii) in ½ strength PDB. The plates are incubated at 30° C. Fungal growth is assayed by measuring optical density at 595 nm (A595) using a microtitre plate reader (SpectraMax Pro M2; Molecular Devices. Growth is allowed to proceed until the optical density (OD) of the fungus in the absence of any test defensin reached an OD of 0.2. Each test is performed in duplicate.

T. interdigitale = test: Inhibition of growth of T. interdigitale by plant defensins (microtitre A595 antifungal assay); assay type: cell-based, Trichophyton interdigitale; conditions: ½ strength PDB, 30° C.
Method: (§4) The inhibitory effects of the plant defensins on the growth of Trichophyton rubrum, T. interdigitale, Microsporum fulvum and C. albicans (all obtained from the National Mycology Reference Centre, South Australia Pathology at the Women's and Children's Hospital, Adelaide, Australia) are measured essentially as described by Broekaert et al. (1990) FEMS Microbiol Lett 69:55-59.
as §2, with “T. rubrum, T. interdigitale” for “A. flavus. A. niger”, “M. fulvum” for “A. fumigatus”, “albicans” for “albicans, C. glabrata, C. tropicalis, C. neoformans and C. gattii”
as §3, with “Ξ m” for “μm”, “(T. rubrum, T. interdigitale, M. fulvum) or” for “(A. flavus, A. niger, A. fumigatus),”, “albicans)” for “albicans, C. glabrata, C. tropicalis) or 1×10^6 cells/mL (C. neoformans, C. gattii)”

M. fulvum = test: Inhibition of growth of Microsporum fulvum by plant defensins (microtitre A595 antifungal assay); assay type: cell-based; conditions: ½ strength PDB, 30° C., A595
Method: as §4
as §2, with “T. rubrum, T. interdigitale” for “A. flavus. A. niger”, “M. fulvum” for “A. fumigatus”, “albicans” for “albicans, C. glabrata, C. tropicalis, C. neoformans and C. gattii”
as §3, with “Ξ m” for “μm”, “(T. rubrum, T. interdigitale, M. fulvum) or” for “(A. flavus, A. niger, A. fumigatus),”, “albicans)” for “albicans, C. glabrata, C. tropicalis) or 1×10^6 cells/mL (C. neoformans, C. gattii)”

C. neoformans = test: Inhibition of growth of Cryptococcus neoformans, Example 2 antifungal assay; assay type: cell-based; conditions: ½ strength PDB, 30° C., A595
Method: as §1, §2, §3

[1] = system: clinical isolates of T. rubrum (14-01, 14-02, 14-03, 13-04); test: Inhibition of growth of clinical isolates of T. rubrum (FIG. 2); assay type: cell-based, Trichophyton rubrum; conditions: all four clinical isolates
Method: (§5) FIG. 2(A) is a graphical representations showing the effect of the plant defensins NaD1 (dashed line) and HXL008 (solid line) on the growth of clinical isolate 14-01 of Trichophyton rubrum in vitro. Fungal growth was measured by the increase in optical density at 595 nm (A595) achieved 72 hours after inoculation of the growth medium and is plotted as a percentage of growth relative to a no-protein control (vertical axis) versus protein concentration (μg/mL, horizontal axis).
as §5, with “2(B)” for “2(A)”, “representation” for “representations”, “14-02” for “14-01”, “axis). […]” for “axis).”
Antifungal assays are conducted in 96 well microtitre plates essentially as herein described. […] Fungal growth is assayed by measuring optical density at 595 nm (A595) using a microtitre plate reader (SpectraMax Pro M2; Molecular Devices. Growth is allowed to proceed until the optical density (OD) of the fungus in the absence of any test defensin reached an OD of 0.2. Each test is performed in duplicate.

[2] = system: clinical isolates of T. rubrum; test: Cell survival assay for clinical isolates of T. rubrum (plating on agar after defensin treatment, FIG. 3); assay type: cell-based, Trichophyton rubrum
Method: FIG. 3(A) is a photographic representations of surviving colonies of T. rubrum clinical isolate 14-01 grown on agar plates after treatment with 100 μM HXL008 for 72 h.
FIG. 3(B) is a photographic representation of surviving colonies of T. rubrum clinical isolate 14-02 grown on agar plates after treatment with 100 μM HXL008 for 72 h.
FIG. 3(C) is a photographic representation of surviving colonies of T. rubrum clinical isolate 14-03 grown on agar plates after treatment with 100 μM HXL008 for 72 h.
FIG. 3(D) is a photographic representation of surviving colonies of T. rubrum clinical isolate 13-04 grown on agar plates after treatment with 100 μM HXL008 for 72 h.
After incubation for 72 h, the media from wells containing clinical isolates of T. rubrum incubated with 100 […] HXL008 was plated onto fresh Sabouraud dextrose agar. Plates were incubated at 30° C. for 5 days to allow colonies to develop before being photographed.

T. rubrum = test: Inhibition of growth of Trichophyton rubrum by plant defensins (microtitre A595 antifungal assay); assay type: cell-based; conditions: ½ strength PDB, 30° C.
Method: as §4
as §2, with “T. rubrum, T. interdigitale” for “A. flavus. A. niger”, “M. fulvum” for “A. fumigatus”, “albicans” for “albicans, C. glabrata, C. tropicalis, C. neoformans and C. gattii”
as §3, with “Ξ m” for “μm”, “(T. rubrum, T. interdigitale, M. fulvum) or” for “(A. flavus, A. niger, A. fumigatus),”, “albicans)” for “albicans, C. glabrata, C. tropicalis) or 1×10^6 cells/mL (C. neoformans, C. gattii)”

## HXL008: Class I plant defensin from Picramnia pentandra (KVCTKPSKFFKGLCGTDGACTTACRKEGLHSGYCQLKGFLNSVCVCRKHC; HXL008 Picramnia pentandra)
C. glabrata
  IC50 against C. glabrata: 20 µg/mL
T. interdigitale
  IC50 against T. interdigitale: 3.5 µg/mL
M. fulvum
  IC50 against M. fulvum: 7 µg/mL
C. neoformans
  IC50 against C. neoformans: 2.5 µg/mL
[1]
  Growth inhibition of T. rubrum clinical isolates compared with NaD1: inhibited growth at a lower concentration than NaD1
[2]; 100 µg/mL HXL008 for 72 h, plated, 30° C. for 5 days
  Surviving colonies on agar plates after incubation with defensin: 1-3 colonies
[2]; incubated with HXL008 for 72 h
  Cell survival of T. rubrum clinical isolates: almost all the cells were dead
T. rubrum
  IC50 against T. rubrum: 3 µg/mL

Source: patent US20180193412A1, “Method of In Vivo Treatment” (Hexima Limited, priority 2015, published 2018)
